Data set [1] concerns Beet Armyworm (Spodoptera exigua) ("BAW"), second instar larvae. The data set is described as follows: Bioassay on beet armyworm (BAW), 128-well diet tray assay. To be noted: for pest or weed control at 50 µg/cm2: Spodoptera exigua; for BAW rating: C = not tested, D = no activity noticed. It counts as in vivo. Put shortly: (§1)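 Sealed trays, 25° C., 14:10 light:dark, 5–7 d. Per-well % mortality recorded, mean of eight wells reported.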

In data set [2] the test system is Cabbage Looper (Trichoplusia ni) ("CL"), second instar larvae. The data set is described as follows: Bioassay on cabbage looper (CL), 128-well diet tray assay. It counts as in vivo. To be noted: for CL rating: C = not tested, D = no activity noticed. The essentials:
as §1

Where [3] appears, read: read-out: BAW (Biological Results, rating).
Where [4] appears, read: Trichoplusia ni, read-out: CL (Biological Results, rating).
Where [5] appears, read: Trichoplusia ni, read-out: CL rating.

One may read the mortality as the percentage killed.

Read-outs that look alike come from different tables or passages of the source.

On to `COC(C)c1ccc(C)cc1N1C(=O)CS/C1=N\C(=O)Nc1ccc(-c2ncn(-c3ccc(C(F)(F)F)cn3)n2)cc1Cl` (stereo not drawn) [Compound J306, (Z)-1-(2-Chloro-4-(1-(5-(trifluoromethyl)pyridin-2-yl)-1H-1,2,4-triazol-3-yl)phenyl)-3-(3-(2-(1-methoxyethyl)-5-methylphenyl)-4-oxothiazolidin-2-ylidene)urea], for which the pest or weed control at 50 µg/cm2 in data set [1] (setting [3]) and in data set [2] (setting [4]) was 50 to 100% each time.
Take `CCCc1ccc(C)cc1N1C(=O)CS/C1=N\C(=O)Nc1ccc(-c2ncn(-c3ccc(N(C(=O)OC)C(F)(F)F)cc3)n2)cc1C` [Compound J784]: in data set [1] (Table ABC, species BAW), the BAW rating result is listed as “A (50-100)”. Besides, the CL rating result in data set [2] (Table ABC, species CL) is reported as “A (50-100)”.
Take “(Z)-1-(3-(5-(Dimethylamino)-2-isopropylphenyl)-4-oxothiazolidin-2-ylidene)-3-(2-fluoro-4-(1-(6-(trifluoromethyl)pyridazin-3-yl))-1H-1,2,4-triazol-3-yl)phenyl)urea [Compound J393]”: the BAW rating entry in data set [1] (Table ABC, species BAW) is recorded as “A (50-100)”. Further, the CL rating result in data set [2] (Table ABC, species CL) is reported as “A (50-100)”.
Regarding `CC(C)c1cc(F)c(N(C)C)cc1N1C(=O)CS/C1=N\C(=O)Nc1ccc(-c2ncn(-c3ccc(OC(F)(F)F)cc3)n2)cc1F` [Compound J162, (Z)-1-(3-(5-(Dimethylamino)-4-fluoro-2-isopropylphenyl)-4-oxothiazolidin-2-ylidene)-3-(2-fluoro-4-(1-(4-(trifluoromethoxy)phenyl)-1H-1,2,4-triazol-3-yl)phenyl)urea], the pest or weed control at 50 µg/cm2 in data set [1] (setting [3]) and in data set [2] (setting [4]) was 50 to 100% throughout.
Consider `Cc1ccc(C(C)C)c(N2C(=O)CS/C2=N\C(=O)Nc2ccc(-c3ncn(-c4ccc(OC(F)(F)F)cc4)n3)cc2C(F)F)c1` [Compound J211, (Z)-1-(2-(Difluoromethyl)-4-(1-(4-(trifluoromethoxy)phenyl)-1H-1,2,4-triazol-3-yl)phenyl)-3-(3-(2-isopropyl-5-methylphenyl)-4-oxothiazolidin-2-ylidene)urea], for which the pest or weed control at 50 µg/cm2 in data set [1] (setting [3]) and in data set [2] (setting [4]) was 50 to 100% in each case.
With `Cc1ccc(COCC(F)F)c(N2C(=O)CS/C2=N\C(=O)Nc2ccc(-c3ncn(-c4ccc(OC(F)(F)F)cc4)n3)cc2F)c1` [Compound J401], the pest or weed control at 50 µg/cm2 in data set [1] (read-out: BAW rating) and in data set [2] (setting [5]) was 50 to 100% each time.
With `COCOc1cc(-c2ncn(-c3ccc(OC(F)(F)F)cc3)n2)ccc1NC(=O)/N=C1\SCC(=O)N1c1cc(C)ccc1C(C)C` [Compound J170, (Z)-1-(3-(2-Isopropyl-5-methylphenyl)-4-oxothiazolidin-2-ylidene)-3-(2-(methoxymethoxy)-4-(1-(4-(trifluoromethoxy)phenyl)-1H-1,2,4-triazol-3-yl)phenyl)urea], the pest or weed control at 50 µg/cm2 in data set [1] (setting [3]) and in data set [2] (setting [4]) was 50 to 100% each time.
With `Cc1ccc(OCCC(F)(F)F)c(N2C(=O)CS/C2=N\C(=O)Nc2ccc(-c3ncn(-c4ccc(S(=O)(=O)C(F)(F)F)cc4)n3)cc2F)c1` [Compound J369, (Z)-1-(2-Fluoro-4-(1-(4-((trifluoromethyl)sulfonyl)phenyl)-1H-1,2,4-triazol-3-yl)phenyl)-3-(3-(5-methyl-2-(3,3,3-trifluoropropoxy)phenyl)-4-oxothiazolidin-2-ylidene)urea], the pest or weed control at 50 µg/cm2 in data set [1] (read-out: BAW rating) and in data set [2] (setting [5]) was 50 to 100% each time.
As for `CN(C)c1ccc(C(F)(F)F)c(N2C(=O)CS/C2=N\C(=O)Nc2ccc(-c3nnc(-c4ccc(OC(F)(F)F)cc4)o3)cc2F)c1` [Compound J611, (Z)-1-(3-(5-(Dimethylamino)-2-(trifluoromethyl)phenyl)-4-oxothiazolidin-2-ylidene)-3-(2-fluoro-4-(5-(4-(trifluoromethoxy)phenyl)-1,3,4-oxadiazol-2-yl)phenyl)urea], the pest or weed control at 50 µg/cm2 in data set [1] (read-out: BAW rating) and in data set [2] (setting [5]) was 50 to 100% throughout.
As to `Cc1ccc(Cc2ccccc2)c(N2C(=O)CS/C2=N\C(=O)Nc2ccc(-c3ncn(-c4ccc(OC(F)(F)F)cc4)n3)cc2C)c1` [Compound J456, (Z)-1-(3-(2-Benzyl-5-methylphenyl)-4-oxothiazolidin-2-ylidene)-3-(2-methyl-4-(1-(4-(trifluoromethoxy)phenyl)-1H-1,2,4-triazol-3-yl)phenyl)urea], the pest or weed control at 50 µg/cm2 in data set [1] (read-out: BAW rating) and in data set [2] (setting [5]) was 50 to 100% each time.
Turning to `Cc1ccc(COCC(F)(F)F)c(N2C(=O)CS/C2=N\C(=O)Nc2ccc(-c3ncn(-c4ccc(S(F)(F)(F)(F)F)cc4)n3)cc2C(F)(F)F)c1` [Compound J626, (Z)-1-(3-(5-Methyl-2-((2,2,2-trifluoroethoxy)methyl)phenyl)-4-oxothiazolidin-2-ylidene)-3-(4-(1-(4-(pentafluoro-λ^6-sulfaneyl)phenyl)-1H-1,2,4-triazol-3-yl)-2-(trifluoromethyl)phenyl)urea], the pest or weed control at 50 µg/cm2 in data set [1] (read-out: BAW rating) and in data set [2] (setting [5]) was 50 to 100% throughout.
Take `CC(C)c1ccc(C#N)cc1N1C(=O)CS/C1=N\C(=O)Nc1ccc(-c2cn(-c3ccc(S(F)(F)(F)(F)F)cc3)cn2)cc1F` [Compound J605, (Z)-1-(3-(5-Cyano-2-isopropylphenyl)-4-oxothiazolidin-2-ylidene)-3-(2-fluoro-4-(1-(4-(pentafluoro-λ^6-sulfaneyl)phenyl)-1H-imidazol-4-yl)phenyl)urea]: the pest or weed control at 50 µg/cm2 in data set [1] (read-out: BAW rating) and in data set [2] (setting [5]) was 50 to 100% in each case.
With `COc1c(C)cccc1N1C(=O)CS/C1=N\C(=O)Nc1ccc(-c2ncn(-c3ccc(OC(F)(F)F)cc3)n2)cc1F` [Compound J798, (Z)-1-(2-Fluoro-4-(1-(4-(trifluoromethoxy)phenyl)-1H-1,2,4-triazol-3-yl)phenyl)-3-(3-(2-methoxy-3-methylphenyl)-4-oxothiazolidin-2-ylidene)urea], the “BAW rating (% control or mortality class)” value in data set [1] (Table ABC, species BAW, 128-well diet tray assay, second instar larvae) is given as “A (50-100)”. Moreover, in data set [2] (Trichoplusia ni, Table ABC, species CL, 128-well diet tray assay, second instar larvae, read-out: CL rating (% control or mortality class)), the mortality at 50 µg/cm2 lay within 50 to 100%.
As to `CCOCc1ccc(C)cc1N1C(=O)CS/C1=N\C(=O)Nc1ccc(-c2ncn(-c3ccc(SC(F)(F)F)cc3)n2)cc1C` [Compound J205, (Z)-1-(3-(2-(Ethoxymethyl)-5-methylphenyl)-4-oxothiazolidin-2-ylidene)-3-(2-methyl-4-(1-(4-((trifluoromethyl)thio)phenyl)-1H-1,2,4-triazol-3-yl)phenyl)urea], the pest or weed control at 50 µg/cm2 in data set [1] (setting [3]) and in data set [2] (setting [4]) was 50 to 100% in each case.
With `CC(C)c1ccc(N(C)C)cc1N1C(=O)CS/C1=N\C(=O)Nc1ccc(-c2ncn(-c3ccc(C(F)(F)F)cn3)n2)cc1Cl` [Compound J296, (Z)-1-(2-Chloro-4-(1-(5-(trifluoromethyl)pyridin-2-yl)-1H-1,2,4-triazol-3-yl)phenyl)-3-(3-(5-(dimethylamino)-2-isopropylphenyl)-4-oxothiazolidin-2-ylidene)urea], the pest or weed control at 50 µg/cm2 in data set [1] (setting [3]) and in data set [2] (setting [4]) was 50 to 100% each time.
For `COC(c1ccc(C)cc1N1C(=O)CS/C1=N\C(=O)Nc1ccc(-c2cn(-c3ccc(C(F)(F)F)cn3)cn2)cc1F)C(F)(F)F` (stereo not drawn) [Compound J485, (Z)-1-(2-Fluoro-4-(1-(5-(trifluoromethyl)pyridin-2-yl)-1H-imidazol-4-yl)phenyl)-3-(3-(5-methyl-2-(2,2,2-trifluoro-1-methoxyethyl)phenyl)-4-oxothiazolidin-2-ylidene)urea], the pest or weed control at 50 µg/cm2 in data set [1] (read-out: BAW rating) and in data set [2] (setting [5]) was 50 to 100% each time.
Turning to `CCOCc1ccc(C)cc1N1C(=O)CS/C1=N\C(=O)Nc1ccc(-c2ncn(-c3ccc(OC(F)(F)F)cc3)n2)cc1Br` [Compound J221, (Z)-1-(2-Bromo-4-(1-(4-(trifluoromethoxy)phenyl)-1H-1,2,4-triazol-3-yl)phenyl)-3-(3-(2-(ethoxymethyl)-5-methylphenyl)-4-oxothiazolidin-2-ylidene)urea], the pest or weed control at 50 µg/cm2 in data set [1] (setting [3]) and in data set [2] (setting [4]) was 50 to 100% each time.
`COC(C)c1ccc(C)cc1N1C(=O)CS/C1=N\C(=O)Nc1ccc(-n2cnc(-c3ccc(C(F)(F)F)cc3)n2)cc1F` (stereo not drawn) [Compound J695, (Z)-1-(2-Fluoro-4-(3-(4-(trifluoromethyl)phenyl)-1H-1,2,4-triazol-1-yl)phenyl)-3-(3-(2-(1-methoxyethyl)-5-methylphenyl)-4-oxothiazolidin-2-ylidene)urea]: the pest or weed control at 50 µg/cm2 in data set [1] (read-out: BAW rating) and in data set [2] (setting [5]) was 50 to 100% each time.
As for `COc1cc(COCC(F)(F)F)c(N2C(=O)CS/C2=N\C(=O)Nc2ccc(-c3ncn(-c4ccc(S(F)(F)(F)(F)F)cc4)n3)cc2C(F)(F)F)cc1OC` [Compound J633, (Z)-1-(3-(4,5-Dimethoxy-2-((2,2,2-trifluoroethoxy)methyl)phenyl)-4-oxothiazolidin-2-ylidene)-3-(4-(1-(4-(pentafluoro-λ^6-sulfaneyl)phenyl)-1H-1,2,4-triazol-3-yl)-2-(trifluoromethyl)phenyl)urea], the pest or weed control at 50 µg/cm2 in data set [1] (read-out: BAW rating) and in data set [2] (setting [5]) was 50 to 100% in each case.
As for `Cc1cc(COCC(F)(F)F)c(N2C(=O)CS/C2=N\C(=O)Nc2ccc(-c3ncn(-c4cccc(OC(F)(F)F)c4)n3)cc2F)cc1C` [Compound J738], in data set [1] (Table ABC, species BAW), the BAW rating result is given as “A (50-100)”. Further, the CL rating result in data set [2] (Table ABC, species CL) is “A (50-100)”.
For `COC(c1ccc(C)cc1N1C(=O)CS/C1=N\C(=O)Nc1ccc(-c2ncn(-c3ccc(C(F)F)cn3)n2)cc1F)C(F)(F)F` (stereo not drawn) [Compound J353], the “BAW (Biological Results, rating)” value in data set [1] (Beet Armyworm (Spodoptera exigua), C = Not Tested) was “A (50-100)”. The “CL (Biological Results, rating)” value in data set [2] (Cabbage Looper (Trichoplusia ni), C = Not Tested) was “A (50-100)”.
